# Experimental data taken from patent publication US9663530B2, “5-oxa-2-azabicyclo[2.2.2]OCTAN-4-yl and 5-oxa-2-azabicyclo[2.2.1]heptan-4-yl derivatives” (Hoffmann-La Roche Inc., priority 2014, dated 2017).
# How the values were obtained:
# rat TAAR1 = rat TAAR1 (Rattus norvegicus (Rat), UniProt Q923Y9); assay: Radioligand binding assay on rat TAAR1; conditions: rat TAAR1 (second value of the cell); membranes of HEK-293 cells stably expressing rat TAAR1; read-out: Ki (μM) mouse/rat
# Description: (§1) Construction of TAAR Expression Plasmids and Stably Transfected Cell Lines
# (§2) For the construction of expression plasmids the coding sequences of human, rat and mouse TAAR 1 were amplified from genomic DNA essentially as described by Lindemann et al.. The Expand High Fidelity PCR System (Roche Diagnostics) was used with 1.5 mM Mg^2+ and purified PCR products were cloned into pCR2.1-TOPO cloning vector (Invitrogen) following the instructions of the manufacturer. PCR products were subcloned into the pIRESneo2 vector (BD Clontech, Palo Alto, Calif.), and expression vectors were sequence verified before introduction in cell lines.
# (§3) HEK293 cells (ATCC # CRL-1573) were cultured essentially as described by Lindemann et al. (2005). For the generation of stably transfected cell lines HEK293 cells were transfected with the pIRESneo2 expression plasmids containing the TAAR coding sequences (described above) with Lipofectamine 2000 (Invitrogen) according to the instructions of the manufacturer, and 24 hrs post transfection the culture medium was supplemented with 1 mg/ml G418 (Sigma, Buchs, Switzerland). After a culture period of about 10 d clones were isolated, expanded and tested for responsiveness to trace amines (all compounds purchased from Sigma) with the cAMP Biotrak Enzyme immunoassay (EIA) System (Amersham) following the non-acetylation EIA procedure provided by the manufacturer.
# Radioligand Binding Assay on Rat TAAR1
# (§4) Membrane Preparation and Radioligand Binding.
# HEK-293 cells stably expressing rat TAAR1 were maintained at 37° C. and 5% CO2 in DMEM high glucose medium, containing fetal calf serum (10%, heat inactivated for 30 min at 56° C.), penicillin/streptomycin (1%), and 375 μg/ml geneticin (Gibco). Cells were released from culture flasks using trypsin/EDTA, harvested, washed twice with ice-cold PBS (without Ca^2+ and Mg^2+), pelleted at 1,000 rpm for 5 min at 4° C., frozen and stored at −80° C. Frozen pellets were suspended in 20 ml HEPES-NaOH (20 mM, pH 7.4) containing 10 mM EDTA and homogenized with a Polytron (PT 6000, Kinematica) at 14,000 rpm for 20 s. The homogenate was centrifuged at 48,000×g for 30 min at 4° C. Subsequently, the supernatant was removed and discarded, and the pellet resuspended in 20 ml HEPES-NaOH (20 mM, pH 7.4) containing 0.1 mM EDTA using the Polytron (20 s at 14,000 rpm). This procedure was repeated and the final pellet resuspended in HEPES-NaOH containing 0.1 mM EDTA and homogenized using the Polytron. Typically, aliquots of 2 ml membrane portions were stored at −80° C. With each new membrane batch the dissociation constant (Kd) was determined via a saturation curve. […] Nonspecific binding was defined as the amount of ^3[H]-(S)-4-[(ethyl-phenyl-amino)-methyl]-4,5-dihydro-oxazol-2-ylamine bound in the presence of 10 μM unlabeled ligand. All compounds were tested at a broad range of concentrations ([…]) in duplicates. The test compounds (20 […]μl/well) were transferred into a 96 deep well plate (TreffLab), and 180 μl of HEPES-NaOH (20 mM, pH 7.4) containing MgCl2 (10 mM) and CaCl2 (2 mM) (binding buffer), 300 μl of the radioligand ^3[H]-(S)-4-[(ethyl-phenyl-amino)-methyl]-4,5-dihydro-oxazol-2-ylamine at a concentration of 3.3×Kd in nM and 500 μl of the membranes (resuspended at 50 μg protein per ml) added. The 96 deep well plates were incubated for 1 hr at 4° C. Incubations were terminated by rapid filtration through Unifilter-96 plates (Packard Instrument Company) and glass filters GF/C (Perkin Elmer) presoaked for 1 hr in polyethylenimine (0.3%) and washed 3 times with 1 ml of cold binding buffer. After addition of 45 μl of Microscint 40 (PerkinElmer) the Unifilter-96 plate was sealed and after 1 hr the ratioactivity counted using a TopCount Microplate Scintillation Counter (Packard Instrument Company).
# mouse TAAR1 = mouse TAAR1 (Mus musculus (Mouse), UniProt Q923Y8); assay: Radioligand binding assay on mouse TAAR1; conditions: mouse TAAR1 (first value of the cell); membranes of HEK-293 cells stably expressing mouse TAAR1; read-out: Ki (μM) mouse/rat
# Sequence of mouse TAAR1 (Q923Y8 whole entry): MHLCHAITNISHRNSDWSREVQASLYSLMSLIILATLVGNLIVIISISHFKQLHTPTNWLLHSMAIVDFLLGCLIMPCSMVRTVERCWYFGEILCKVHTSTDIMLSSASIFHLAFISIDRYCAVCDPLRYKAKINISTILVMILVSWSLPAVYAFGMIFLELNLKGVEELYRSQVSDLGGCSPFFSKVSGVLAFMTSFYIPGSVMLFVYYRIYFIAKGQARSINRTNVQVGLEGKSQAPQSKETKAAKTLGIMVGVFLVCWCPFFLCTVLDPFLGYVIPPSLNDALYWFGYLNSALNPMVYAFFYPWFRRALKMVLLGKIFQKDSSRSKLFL
# Description: as §1, §2, §3
# Radioligand Binding Assay on Mouse TAAR1
# as §4
# HEK-293 cells stably expressing mouse TAAR1 were maintained at 37° C. and 5% CO2 in DMEM high glucose medium, containing fetal calf serum (10%, heat inactivated for 30 min at 56° C.), penicillin/streptomycin (1%), and 375 μg/ml geneticin (Gibco). Cells were released from culture flasks using trypsin/EDTA, harvested, washed twice with ice-cold PBS (without Ca^2+and Mg^2+), pelleted at 1,000 rpm for 5 min at 4° C., frozen and stored at −80° C. Frozen pellets were suspended in 20 ml HEPES-NaOH (20 mM, pH 7.4) containing 10 mM EDTA and homogenized with a Polytron (PT 6000, Kinematica) at 14,000 rpm for 20 s. The homogenate was centrifuged at 48,000×g for 30 min at 4° C. Subsequently, the supernatant was removed and discarded, and the pellet resuspended in 20 ml HEPES-NaOH (20 mM, pH 7.4) containing 0.1 mM EDTA using the Polytron (20 s at 14,000 rpm). This procedure was repeated and the final pellet resuspended in HEPES-NaOH containing 0.1 mM EDTA and homogenized using the Polytron. Typically, aliquots of 2 ml membrane portions were stored at −80° C. With each new membrane batch the dissociation constant (Kd) was determined via a saturation curve. The TAAR1 radioligand ^3[H]-(S)-4-[(ethyl-phenyl-amino)-methyl]-4,5-dihydro-oxazol-2-ylamine (described in WO 2008/098857) was used at a concentration equal to the calculated Kd value, that was usually around 0.7 nM, resulting in the binding of approximately 0.5% of the radioligand and a specific binding representing approximately 70% of the total binding. Nonspecific binding was defined as the amount of ^3[H]-(S)-4-[(ethyl-phenyl-amino)-methyl]-4,5-dihydro-oxazol-2-ylamine bound in the presence of 10 μM unlabeled ligand. All compounds were tested at a broad range of concentrations ([…]) in duplicates. The test compounds (20 […]μl/well) were transferred into a 96 deep well plate (TreffLab), and 180 μl of HEPES-NaOH (20 mM, pH 7.4) containing MgCl2 (10 mM) and CaCl2 (2 mM) (binding buffer), 300 μl of the radioligand ^3[H]-(S)-4-[(ethyl-phenyl-amino)-methyl]-4,5-dihydro-oxazol-2-ylamine at a concentration of 3.3×Kd in nM and 500 μl of the membranes (resuspended at […]) added. The 96 deep well plates were incubated for 1 hr at 4° C. Incubations were terminated by rapid filtration through Unifilter-96 plates (Packard Instrument Company) and glass filters GF/C (Perkin Elmer) presoaked for 1 hr in polyethylenimine (0.3%) and washed 3 times with 1 ml of cold binding buffer. […]
# Sequence of rat TAAR1 (Q923Y9 whole entry): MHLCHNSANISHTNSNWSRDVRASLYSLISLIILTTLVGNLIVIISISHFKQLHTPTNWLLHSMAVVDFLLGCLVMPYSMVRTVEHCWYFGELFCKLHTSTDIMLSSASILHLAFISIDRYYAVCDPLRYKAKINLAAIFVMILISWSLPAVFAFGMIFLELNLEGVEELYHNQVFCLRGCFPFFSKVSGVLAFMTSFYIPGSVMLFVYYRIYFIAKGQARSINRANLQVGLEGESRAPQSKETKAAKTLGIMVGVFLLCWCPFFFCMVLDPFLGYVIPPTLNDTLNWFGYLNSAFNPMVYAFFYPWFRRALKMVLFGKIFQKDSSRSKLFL
SMILES,Ki (rat TAAR1) [µM],Ki (mouse TAAR1) [µM]
"O=C(Nc1ccc(C[C@]23CN[C@H](CO2)C3)cc1)c1cnc(C2CC2)nc1 [Example 28, 2-Cyclopropyl-N-[4-[[(1S,4S)-5-oxa-2-azabicyclo[2.2.1]heptan-4-yl]methyl]phenyl]pyrimidine-5-carboxamide]",1.58,0.36
"FC(F)(F)c1ccc(Nc2ccc(C[C@@]34CN[C@@H](CO3)C4)cc2)nc1 [Example 63, N-[4-[[(1R,4R)-5-Oxa-2-azabicyclo[2.2.1]heptan-4-yl]methyl]phenyl]-5-(trifluoromethyl)pyridin-2-amine]",0.141,0.0107
"Clc1ccc(Nc2ccc([C@@]34CN[C@@H](CO3)C4)cc2)nc1 [Example 20, 5-Chloro-N-[4-[(1R,4S)-5-oxa-2-azabicyclo[2.2.1]heptan-4-yl]phenyl]pyridin-2-amine]",1.78,0.0062
"O=C(Nc1ccc(C[C@@]23CN[C@@H](CO2)C3)cc1)Nc1ccc(C(F)(F)F)cc1 [Example 22, 1-[4-[[(1R,4R)-5-Oxa-2-azabicyclo[2.2.1]heptan-4-yl]methyl]phenyl]-3-[4-(trifluoromethyl)phenyl]urea]",0.0237,0.0126
"O=C(Nc1ccc(C[C@@]23CN[C@@H](CO2)C3)cc1)c1ccc(Cl)cc1 [Example 21, 4-Chloro-N-[4-[[(1R,4R)-5-oxa-2-azabicyclo[2.2.1]heptan-4-yl]methyl]phenyl]benzamide]",0.0626,0.003
O=C(Nc1ccc([C@@]23CN[C@@H](CO2)C3)cc1)c1ccnc(C(F)(F)F)c1 [Example 57],1.91,0.0593
"O=C(Nc1ccc(C[C@]23CN[C@H](CO2)C3)cc1)Nc1cccc(Cl)c1 [Example 2, 1-(3-Chlorophenyl)-3-[4-[[(1S,4S)-5-oxa-2-azabicyclo[2.2.1]heptan-4-yl]methyl]phenyl]urea]",0.0822,1.35
"FC(F)(F)c1nccc(Nc2ccc([C@@]34CN[C@@H](CO3)C4)cc2)n1 [Example 56, N-[4-[(1R,4S)-5-Oxa-2-azabicyclo[2.2.1]heptan-4-yl]phenyl]-2-(trifluoromethyl)pyrimidin-4-amine]",2.41,0.0393
"FC(F)(F)c1nccc(Nc2ccc(C34CCC(CO3)NC4)cc2)n1 (centres unmarked) [Example 36, N-[4-(5-Oxa-2-azabicyclo[2.2.2]octan-4-yl)phenyl]-2-(trifluoromethyl)pyrimidin-4-amine]",1.97,0.0471

# Second part, the molecule after the results:
Ki (rat TAAR1) [µM],Ki (mouse TAAR1) [µM],SMILES
7.06,0.0219,"CCOc1ccc(C(=O)Nc2ccc(C34CCC(CO3)NC4)cc2)cn1 (racemic) [Example 12, (RS)-6-Ethoxy-N-[4-(5-oxa-2-azabicyclo[2.2.2]octan-4-yl)phenyl]pyridine-3-carboxamide]"
0.063,0.334,"CCOc1ccc(C(=O)Nc2ccc(C[C@]34CN[C@H](CO3)C4)cc2)cc1 [Example 19, 4-Ethoxy-N-[4-[[(1 S,4S)-5-oxa-2-azabicyclo[2.2.1]heptan-4-yl]methyl]phenyl]benzamide]"
0.013,0.0552,"O=C(Nc1ccc(C[C@]23CN[C@H](CO2)C3)cc1)c1ccc(OCC(F)(F)F)nc1 [Example 27, N-[4-[[(1 S,4S)-5-Oxa-2-azabicyclo[2.2.1]heptan-4-yl]methyl]phenyl]-6-(2,2,2-trifluoroethoxy)pyridine-3-carboxamide]"
0.0973,0.0135,"CCCc1n[nH]c(C(=O)Nc2ccc(C34CCC(CO3)NC4)cc2)c1Cl (racemic) [Example 34, (RS)-4-Chloro-N-[4-(5-oxa-2-azabicyclo[2.2.2]octan-4-yl)phenyl]-3-propyl-1H-pyrazole-5-carboxamide]"
> 10,0.136,"O=C(Nc1ccc(C23CCC(CO2)NC3)cc1)c1cnc(C2CC2)nc1 (racemic) [Example 14, (RS)-2-Cyclopropyl-N-[4-(5-oxa-2-azabicyclo[2.2.2]octan-4-yl)phenyl]pyrimidine-5-carboxamide]"
0.0774,0.0054,"O=C(Nc1ccc([C@]23CN[C@H](CO2)C3)cc1)c1cccc(Cl)c1 [Example 59, 3-Chloro-N-[4-[(1S,4R)-5-oxa-2-azabicyclo[2.2.1]heptan-4-yl]phenyl]benzamide]"
0.448,0.0142,"CCOc1ccc(C(=O)Nc2ccc(C[C@@]34CN[C@@H](CO3)C4)cc2)cn1 [Example 46, 6-Ethoxy-N-[4-[[(1R,4R)-5-oxa-2-azabicyclo[2.2.1]heptan-4-yl]methyl]phenyl]pyridine-3-carboxamide]"
10,0.153,"CCc1ncc(C(=O)Nc2ccc(C34CCC(CO3)NC4)cc2)cn1 (racemic) [Example 35, (RS)-2-Ethyl-N-[4-(5-oxa-2-azabicyclo[2.2.2]octan-4-yl)phenyl]pyrimidine-5-carboxamide]"
0.273,0.0512,"O=C(Nc1ccc([C@]23CN[C@H](CO2)C3)cc1)c1ccnc(C(F)(F)F)c1 [Example 60, N-[4-[(1S,4R)-5-Oxa-2-azabicyclo[2.2.1]heptan-4-yl]phenyl]-2-(trifluoromethyl)pyridine-4-carboxamide]"
0.441,1.14,"CCOc1ccc(C(=O)Nc2ccc(C[C@]34CN[C@H](CO3)C4)cc2)cn1 [Example 26, 6-Ethoxy-N-[4-[[(1S,4S)-5-oxa-2-azabicyclo[2.2.1]heptan-4-yl]methyl]phenyl]pyridine-3-carboxamide]"
